Like-named read-outs stand apart in the source and are kept apart here.
T1: hAQP1 (Homo sapiens, UniProt P29972)
T1 construct: made in house; host or cells: Spodoptera frugiperda (Sf9) insect cells, baculovirus vector pFB-LIC-Bse
T1 sequence (P29972 1-269): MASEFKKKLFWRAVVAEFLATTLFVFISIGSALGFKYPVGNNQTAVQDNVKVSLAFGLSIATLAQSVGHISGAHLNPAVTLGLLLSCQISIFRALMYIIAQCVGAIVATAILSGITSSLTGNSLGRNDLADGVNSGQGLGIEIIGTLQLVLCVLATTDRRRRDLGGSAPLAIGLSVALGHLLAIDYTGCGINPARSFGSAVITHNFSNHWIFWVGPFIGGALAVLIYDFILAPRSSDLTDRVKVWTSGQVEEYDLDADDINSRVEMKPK

T2: E. coli aquaporin Z (E. coli), P60844
T2 chain: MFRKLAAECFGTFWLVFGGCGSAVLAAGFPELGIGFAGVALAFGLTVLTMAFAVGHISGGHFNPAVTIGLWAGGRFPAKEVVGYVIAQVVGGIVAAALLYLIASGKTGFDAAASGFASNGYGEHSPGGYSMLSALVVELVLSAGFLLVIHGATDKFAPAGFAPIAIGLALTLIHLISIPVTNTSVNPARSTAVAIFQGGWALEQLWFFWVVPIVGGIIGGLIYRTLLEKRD


Legend:
[1] = molecular target: T1, hAQP1; assay: Surface plasmon resonance (SPR) fragment binding to immobilized hAQP1; conditions: for SPR binding behaviour: sensorgrams 6.25 to 800 µM
Experimental: Surface Plasmon Resonance measurements were performed using Biacore T-200 (GE Healthcare, Uppsala, Sweden) using the running buffer PBS pH 7.4 supplemented with 1% OG and 5% dimethylsulfoxide (DMSO) at 25 °C. Purified recombinant hAQP1 was directly immobilized onto Biacore Sensor Chip CM5 Research Grade (GE Healthcare, Little Chalfont, UK) using standard amine-coupling chemistry at a flow rate of 5 µL/min. Carboxyl derivatives on CM5 dextran surface were activated with a 10-min 1:1 mixture of 0.2 M N-ethyl-N′-(3-([…])propyl)carbodiimide (EDC) and 50 mM N-hydroxysuccinimide (NHS). The aquaporins were diluted in 10 mM sodium acetate, pH 5.0 and injected across the surface separately. Addition of 0.5 M ethanolamine–HCl at pH 8.5 for 10 min was used to block unreacted activated carboxyl derivates.
The Maybridge Ro3 Diversity Fragment Library (Thermo Fisher Scientific, Waltham, MA, USA) consisting of 1500 fragments was used for screening. These fragments have molecular weight ranging from 82.1 to 295.3 Da, with an experimental guarantee of solubility of ≥1 mM in aqueous phosphate buffer and ≥200 mM in DMSO. They satisfy the “rule of three” criteria, i.e., a molecular weight of ≤300 Da, a cLogP of ≤3.0, ≤3 H-bond acceptors or H-bond donors, ≤3 rotatable bonds, and a polar surface area of ≤60 Å^2. Lyophilized powder of each fragments were pre-dissolved in 100% DMSO prior to the screening campaign. A volume of 10 µL of a 4 mM stock solution of each fragment in 100% DMSO was added to 190 µL of a buffer composed of 1.06 × PBS + 1.06% OG so as to obtain a final fragment concentration of 200 µM in PBS + 1% OG + 5% DMSO in a volume of 200 µL. We note that although a higher screening concentration in the mM range would in principle result in higher protein surface occupancy, allowing the detection of weaker interactions, this may also increase the probability of non-specific binding and/or promiscuously binding colloidal aggregates. In addition, the presence of salt and detergent in the buffer helps to stabilize the hAQP1 and also reduces the chances of non-specific binding. The DMSO solvent has a high refractive index and can be a major cause of false positives and plate-to-plate baseline variations. Therefore, it was important to accurately match its concentration in the sample buffer and the running buffer throughout the screening to minimize data inconsistencies during analysis.
The fragments were injected across a reference channel and hAQP1 channel for 2 min at flow rate of 30 µL/min, and then allowed to dissociate in running buffer for another min. Each fragment was injected in duplicates. DMSO calibration was performed for DMSO correction. Reproducibility was monitored with duplicate injections of each sample. No regeneration step was necessary as all fragments were dissociated. Previously validated positive controls, NSC226080 and NSC624169 (not shown), were included over the course of screening to monitor the surface protein activity.
These fragments, together with the positive controls, were diluted into 25, 50, 100 and 200 µM and tested over the same surfaces under the same conditions. DMSO calibration was performed for DMSO correction. Non-stoichiometric binders (potential fragments that aggregate, precipitate, binding non-specifically, etc.) were excluded. Good binders were assayed in a broader concentration range from 6.25 to 800 µM in 2-fold dilutions under the same conditions.
Raw sensorgrams were corrected for DMSO and double referenced (subtraction of the reference flow cell followed by subtraction of the closest buffer blank), which responses were corrected with a reference flow cell and a blank buffer injections. Corrected sensorgrams were y-axis and x-axis corrected at the point of fragment injection. Responses for the varied concentrations for a fragment were overlaid. […]

[2] = molecular target: T1, hAQP1; assay: Thermal aggregation shift assay (differential static light scattering, DSLS); type: binding; design: key to ΔTagg (+/−): positive (+) Thermal Shift; ΔTagg (+/−); conditions: for ΔTagg (+/−): 1 mM of each fragment; for Tagg: hAQP1 incubated in 1 mM of fragment, hAQP1 alone 54.6 ± 0.1; for dose-dependency of hAQP1 stabilization: increasing concentration of fragment; for Tagg of hAQP1: secondary dose-response assay
Experimental: Temperature-dependent protein aggregation was measured with static light scattering (Stargazer-384, Harbinger Biotech, Markham, ON, Canada) as previously described with modifications. Briefly, purified hAQP1 in PBS pH 7.4 and 1% OG at a concentration of 0.2 mg/mL, incubated with test compound or fragment at the appropriate concentration at room temperature for 15 min, and aliquoted in a clear-bottom 384-well plate (Nunc, Roskilde, Denmark) to a volume of 45 µL in triplicate. The final concentration of DMSO was kept at 5%. Mineral oil (45 µL) covered the sample to prevent evaporation. The sample was heated from 25 to 80 °C at a rate of 1 °C per minute. Incident light was shone on the protein drop from beneath at a 30° angle, and a CCD camera was used to measure the scattered light intensity every 30 s to monitor protein aggregation. Data collated was analyzed using the Bioactive software (Harbinger Biotech). Intensities were plotted as a function of temperature and fitted to the Boltzmann equation by non-linear regression. The point of inflection of the fitted curve defined the temperature of aggregation (Tagg).

[3] = system: human red blood cells; assay: Stopped-flow water permeability assay using human red blood cells; type: cell-based; conditions: tested at 1 mM
Experimental: As indicated in the introduction, the binders found should not necessarily show inhibition. Nevertheless, we performed stopped-flow assays to test the effects of the seven fragments in Figure 6 on hAQP1 water permeability using human red blood cells. Based on the values of the rate constants of the scattering increase, none of these fragments produced a significant reduction in water permeability when tested at 1 mM (not shown). Several factors may account for this. […] In addition, hAQP1 in red blood cells is highly glycosylated compared to the hAQP1 purified from insect cells, and this may affect binding affinity. Another factor is the orientation of the protein in the membrane, as in theory only one side of the protein (extracellular) is exposed to the drug in RBC assays, whereas both extramembrane domains are exposed when the protein is solubilized in micelles. Another factor, also noted by Seeliger et al., is the high density of AQP1 at the membrane of red blood cells. […] We are at present unable to explain this behavior or relate it to inhibition of hAQP1.

[4] = molecular target: T1, hAQP1; assay: Stopped-flow water permeability assay of hAQP1 proteoliposomes; type: biochemical
Experimental: Liposomes used in this work were prepared using film rehydration. In this procedure, a thin lipid film of Escherichia coli lipids is formed by drying under a nitrogen stream lipid extract powder (Avanti Polar Lipids Inc., Alabaster, AL, USA) in chloroform. After at least 2 h in a vacuum desiccator, purified aquaporin protein in detergent was added and supplemented with reconstitution buffer (20 mM Tris–HCl pH 8.0) to obtain a protein-to-lipid molar ratio of 1:400. A volume of 1 mL of this reconstitution mixture was incubated for 1 h at room temperature. Uniform sized liposomes were obtained by extrusion through a 400 nm pore-size polycarbonate membrane using an Avestin extruder. […]
The water permeability of proteoliposomes reconstituted with purified aquaporin was determined in a SX20 stopped-flow spectrometer (Applied Photophysics, Leatherhead, UK) with a dead time of 1.1 ms. […] The solution osmolarities were measured using a vapor pressure osmometer (Wescor, Logan, UT, USA). […] The measured average diameter of control liposomes and hAQP1-proteoliposomes were 368 and 262 nm, respectively.
Data was acquired by the Pro-Data SX software and analyzed by Pro-Data Viewer software (Applied Photophysics), where the measured light scattering intensity signals were fitted to an exponential function to obtain the rate constants. […]

[5] = molecular target: T2, E. coli aquaporin Z (E. coli), P60844; assay: native gel or EMSA; blue-native PAGE (4%-16% Bis-Tris gel, 4 °C) of purified protein in sample buffer with 100 mM OG, 750 mM aminocaproic acid, 50 mM Bis-Tris HCl pH 7.0, 0.5 mM EDTA; conditions: remark: other sources report otherwise
[6] = 1:1 steady-state binding model, 6.25 to 800 µM in 2-fold dilutions, 25 °C, read-out: SPR (KD)
[7] = inset table of the Figure 5 sensorgram, read-out: KD (inset table)

Molecule	Kd [1, 6] [µM]	Kd [1, 7] [µM]	ΔTagg (+/−) [2]	Tagg [2] [°C]	SPR binding behaviour [1]	other results
NCc1cccc(N2CCCCC2)n1 [CC38113]	62	62.2	+	63.3 ± 0.1		amplitude of the stopped-flow traces [3]: large amplitude reduction in the traces
CNCc1scc2c1OCCO2 [CC47846]			+	70.0 ± 1.2		
OC1CCCNC1 (stereo not shown) [AC36708]			+	62.9 ± 0.4		
Cc1cc2cc(N)ccc2[nH]1 [AC34875]	225	225	−	50.9	binding did not achieve saturation equilibrium at higher concentrations	
[Cl][Hg][Cl] [HgCl2, mercuric chloride]						average fitted rate constant (k) ([4]; 300 µM, 23 °C, means ± S.E., n = 6, without inhibitor 109.4 (±1.9)): 8.56 (±0.03) s^−1; osmotic water permeability coefficient (Pf) ([4]; proteoliposomes pre-incubated with 300 µM, without inhibitor Pf = 0.053): 0.0041 cm/s
NCCNc1cccc2ccccc12 [AC42399]	546		−	48.0	fast-on, fast-off kinetics	
Nc1snnc1-c1ccc(C(F)(F)F)cc1 [MO00656]	> 800		−	51.8	fast-on, fast-off kinetics	
OCc1cccc(-c2ccco2)c1 [CC46109]	982	982	+			amplitude of the stopped-flow traces [3]: large amplitude reduction in the traces
NCc1ccc(-c2ccc(C(F)(F)F)cn2)cc1 [CC53013]	1310	1310	−	48.6	fast-on, fast-off kinetics	
O=Nc1c(O)ccc2ccccc12 [AC15153]	337	337				
NCCc1coc2ccccc12 [CC40813]			−	50.3	binding did not achieve saturation equilibrium at higher concentrations	Kd ([1]; KD (inset table), inset table of the Figure 5 sensorgram): 133 µM; Kd ([1]; SPR (KD), 1:1 steady-state binding model, 6.25 to 800 µM in 2-fold dilutions, 25 °C): 133 µM
NCCNCc1ccccc1 [SB01744]			+	58.7 ± 0.2		dose-dependency of hAQP1 stabilization [2]: could not be interpreted due to inconsistencies in the results
Nc1ccc2c(c1)OCCO2 [SB00353]	902	902	−	51.1		
c1ccc2c(c1)CCNCC2 [MO08607]	962	962	+	59.0 ± 0.3		dose-dependency of hAQP1 stabilization [2]: can be considered a true binder; Tagg of hAQP1 ([2]; 50 μM): 61.8 ± 0.6 °C; Tagg of hAQP1 ([2]; 400 µM): 66.3 ± 0.1 °C; Tagg of hAQP1 ([2]; 2000 µM): 86.7 ± 7.2 °C
Nc1cccc(CN2CCCC2)c1 [CC55714]			+	63.6 ± 0.4		
E. coli aquaporin Z, P60844 1-231 (natural protein) MFRKLAAECFGTFWLVFGGCGSAVLAAGFPELGIGFAGVALAFGLTVLTMAFAVGHISGGHFNPAVTIGLWAGGRFPAKEVVGYVIAQVVGGIVAAALLYLIASGKTGFDAAASGFASNGYGEHSPGGYSMLSALVVELVLSAGFLLVIHGATDKFAPAGFAPIAIGLALTLIHLISIPVTNTSVNPARSTAVAIFQGGWALEQLWFFWVVPIVGGIIGGLIYRTLLEKRD						stoichiometry N [5]: 8

From PMC4848905, “Fragment Screening of Human Aquaporin 1” (International Journal of Molecular Sciences, 2016)
